Earlier results, collected in US20120237590A1 (priority 2011, published 2012).

Tests used:
Amyloid β = conditions: mice, 20 mg/kg gavage, 12 weeks
[1] = June 2005 to 2008; 27,996 exenatide and 16,276 sidagliptin users

Q: With `N[C@@H](CC(=O)N1CCn2c(nnc2C(F)(F)F)C1)Cc1cc(F)c(F)cc1F` [Sitagliptin] as the molecule, how does the “decrease of amyloid β levels and amyloid plaques” value (Amyloid β) read?
A: about 50%

Q: And the “levels of incretin GLP-1 in the brain” value (Amyloid β)?
A: increased

Q: And the “users who suffered acute pancreatitis” value [1]?
A: 0.12%
